Results published in ChEMBL document CHEMBL3792297, “Studies on phenothiazines: New microtubule-interacting compounds with phenothiazine A-ring as potent antineoplastic agents” (Bioorg Med Chem, 2016).

Columns and labels:
Assay type in all cases: functional
[1] = Growth inhibition of human SKOV3 cells at 10 uM after 48 hrs by SRB assay relative to control; conditions: SK-OV-3, 48 h, read-out: GI
NCI-H522 = assay: Growth inhibition of human NCI-H522 cells after 48 hrs by SRB assay; conditions: NCI-H522, 48 h
SK-MEL-28 = assay: Growth inhibition of human SK-MEL-28 cells at 10 uM after 48 hrs by SRB assay relative to control; conditions: SK-MEL-28, 48 h, read-out: GI
[2] = Growth inhibition of human RXF393 cells after 48 hrs by SRB assay; conditions: RXF 393, 48 h
MDA-MB-435 [3] = assay: Growth inhibition of human MDA-MB-435 cells at 10 uM after 48 hrs by SRB assay relative to control; conditions: MDA-MB-435, 48 h, read-out: GI
[4] = Growth inhibition of human SF268 cells after 48 hrs by SRB assay; conditions: SF-268, 48 h
[5] = Growth inhibition of human SW620 cells after 48 hrs by SRB assay; conditions: SW-620, 48 h
[6] = Growth inhibition of human UACC257 cells at 10 uM after 48 hrs by SRB assay relative to control; conditions: UACC-257, 48 h, read-out: GI
[7] = Growth inhibition of human NCI-ADR-RES cells at 10 uM after 48 hrs by SRB assay relative to control; conditions: read-out: GI
ACHN = assay: Growth inhibition of human ACHN cells at 10 uM after 48 hrs by SRB assay relative to control; conditions: read-out: GI
[8] = Growth inhibition of human LOXIMVI cells after 48 hrs by SRB assay; conditions: LOX IMVI
[9] = Growth inhibition of human OVCAR4 cells after 48 hrs by SRB assay; conditions: OVCAR-4, 48 h
[10] = Growth inhibition of human HL-60(TB) cells after 48 hrs by SRB assay; conditions: HL-60, 48 h
[11] = Growth inhibition of human OVCAR8 cells after 48 hrs by SRB assay; conditions: OVCAR-8, 48 h
[12] = Growth inhibition of human SF268 cells at 10 uM after 48 hrs by SRB assay relative to control; conditions: SF-268, 48 h, read-out: GI
SR = assay: Growth inhibition of human SR cells after 48 hrs by SRB assay
[13] = Growth inhibition of human OVCAR8 cells at 10 uM after 48 hrs by SRB assay relative to control; conditions: OVCAR-8, 48 h, read-out: GI
MDA-MB-468 = assay: Growth inhibition of human MDA-MB-468 cells at 10 uM after 48 hrs by SRB assay relative to control; conditions: MDA-MB-468, 48 h, read-out: GI
[14] = Growth inhibition of human SF539 cells after 48 hrs by SRB assay; conditions: SF-539, 48 h
[15] = Growth inhibition of human SKOV3 cells after 48 hrs by SRB assay; conditions: SK-OV-3, 48 h
[16] = Growth inhibition of human HOP92 cells after 48 hrs by SRB assay; conditions: HOP-92, 48 h
[17] = Growth inhibition of human OVCAR3 cells after 48 hrs by SRB assay; conditions: OVCAR-3, 48 h
SN12C = assay: Growth inhibition of human SN12C cells at 10 uM after 48 hrs by SRB assay relative to control; conditions: read-out: GI
SK-MEL-5 = assay: Growth inhibition of human SK-MEL-5 cells at 10 uM after 48 hrs by SRB assay relative to control; conditions: SK-MEL-5, 48 h, read-out: GI
[18] = Growth inhibition of human SF295 cells after 48 hrs by SRB assay; conditions: SF-295, 48 h
[19] = Growth inhibition of human Caki1 cells at 10 uM after 48 hrs by SRB assay relative to control; conditions: CAKI-1, 48 h, read-out: GI
[20] = Growth inhibition of human SW620 cells at 10 uM after 48 hrs by SRB assay relative to control; conditions: SW-620, 48 h, read-out: GI
CCRF-CEM = assay: Growth inhibition of human CCRF-CEM cells after 48 hrs by SRB assay
[21] = Growth inhibition of human IGROV1 cells after 48 hrs by SRB assay; conditions: IGROV-1, 48 h
MDA-MB-435 [22] = assay: Growth inhibition of human MDA-MB-435 cells after 48 hrs by SRB assay; conditions: MDA-MB-435, 48 h
[23] = Growth inhibition of human SNB19 cells at 10 uM after 48 hrs by SRB assay relative to control; conditions: SNB-19, 48 h, read-out: GI
[24] = Growth inhibition of human HCT15 cells at 10 uM after 48 hrs by SRB assay relative to control; conditions: HCT-15, 48 h, read-out: GI
[25] = Growth inhibition of human MOLT4 cells after 48 hrs by SRB assay; conditions: MOLT-4, 48 h
[26] = Growth inhibition of human HCT116 cells at 10 uM after 48 hrs by SRB assay relative to control; conditions: HCT-116, 48 h, read-out: GI
HT-29 [27] = assay: Growth inhibition of human HT-29 cells at 10 uM after 48 hrs by SRB assay relative to control; conditions: HT-29, 48 h, read-out: GI
[28] = Growth inhibition of human Hs 578T cells at 10 uM after 48 hrs by SRB assay relative to control; conditions: read-out: GI
[29] = Growth inhibition of human UO31 cells after 48 hrs by SRB assay; conditions: UO-31, 48 h
A549 = assay: Growth inhibition of human A549 cells after 48 hrs by SRB assay; conditions: A549, 48 h
[30] = Growth inhibition of human HL-60(TB) cells at 10 uM after 48 hrs by SRB assay relative to control; conditions: HL-60, 48 h, read-out: GI
[31] = Growth inhibition of human RPMI8226 cells after 48 hrs by SRB assay; conditions: RPMI-8226, 48 h
HT-29 [32] = assay: Growth inhibition of human HT-29 cells after 48 hrs by SRB assay; conditions: HT-29, 48 h
[33] = Growth inhibition of human HCC2998 cells after 48 hrs by SRB assay; conditions: HCC 2998, 48 h
[34] = Growth inhibition of human IGROV1 cells at 10 uM after 48 hrs by SRB assay relative to control; conditions: IGROV-1, 48 h, read-out: GI
[35] = Growth inhibition of human UACC62 cells after 48 hrs by SRB assay; conditions: UACC-62, 48 h
[36] = Growth inhibition of human HCT15 cells after 48 hrs by SRB assay; conditions: HCT-15, 48 h
SK-MEL-2 = assay: Growth inhibition of human SK-MEL-2 cells at 10 uM after 48 hrs by SRB assay relative to control; conditions: SK-MEL-2, 48 h, read-out: GI

COc1ccc(C(=O)N2c3ccccc3Sc3ccccc32)c(F)c1
inhibition of growth at 10 µM [1]: 62% | GI50 (NCI-H522): 403 nM | inhibition of growth at 10 µM (SK-MEL-28): 41% | GI50 [2]: 764 nM | inhibition of growth at 10 µM (MDA-MB-435 [3]): 100% | GI50 [4]: 10100 nM | GI50 [5]: 458 nM | inhibition of growth at 10 µM [6]: 33% | inhibition of growth at 10 µM [7]: 98% | inhibition of growth at 10 µM (ACHN): 52% | GI50 [8]: 727 nM | GI50 [9]: 2010 nM | GI50 [10]: 325 nM | GI50 [11]: 2200 nM | inhibition of growth at 10 µM [12]: 47% | GI50 (SR): 380 nM | inhibition of growth at 10 µM [13]: 68% | inhibition of growth at 10 µM (MDA-MB-468): 100% | GI50 [14]: 409 nM | GI50 [15]: 4130 nM | GI50 [16]: 238 nM | GI50 [17]: 418 nM | inhibition of growth at 10 µM (SN12C): 39% | inhibition of growth at 10 µM (SK-MEL-5): 84% | GI50 [18]: 395 nM | inhibition of growth at 10 µM [19]: 55% | inhibition of growth at 10 µM [20]: 85% | GI50 (CCRF-CEM): 522 nM | GI50 [21]: 807 nM | GI50 (MDA-MB-435 [22]): 177 nM | inhibition of growth at 10 µM [23]: 64% | inhibition of growth at 10 µM [24]: 73% | GI50 [25]: 715 nM | inhibition of growth at 10 µM [26]: 80% | inhibition of growth at 10 µM (HT-29 [27]): 95% | inhibition of growth at 10 µM [28]: 84% | GI50 [29]: 3780 nM | GI50 (A549): 1190 nM | inhibition of growth at 10 µM [30]: 85% | GI50 [31]: 921 nM | GI50 (HT-29 [32]): 380 nM | GI50 [33]: 2380 nM | inhibition of growth at 10 µM [34]: 45% | GI50 [35]: 382 nM | GI50 [36]: 419 nM

COc1ccc(C(=O)N2c3ccccc3Sc3ccccc32)cc1F
inhibition of growth at 10 µM [1]: 87% | GI50 (NCI-H522): 114 nM | inhibition of growth at 10 µM (SK-MEL-28): 57% | GI50 [2]: 211 nM | GI50 [4]: 799 nM | GI50 [5]: 282 nM | inhibition of growth at 10 µM [6]: 50% | inhibition of growth at 10 µM [7]: 100% | inhibition of growth at 10 µM (ACHN): 50% | GI50 [8]: 672 nM | GI50 [9]: 1450 nM | GI50 [10]: 305 nM | GI50 [11]: 420 nM | inhibition of growth at 10 µM [12]: 58% | GI50 (SR): 162 nM | inhibition of growth at 10 µM [13]: 97% | inhibition of growth at 10 µM (MDA-MB-468): 100% | GI50 [14]: 218 nM | GI50 [15]: 306 nM | GI50 [16]: 1130 nM | GI50 [17]: 249 nM | inhibition of growth at 10 µM (SN12C): 66% | inhibition of growth at 10 µM (SK-MEL-5): 93% | GI50 [18]: 251 nM | inhibition of growth at 10 µM [19]: 48% | inhibition of growth at 10 µM [20]: 80% | GI50 (CCRF-CEM): 287 nM | GI50 [21]: 566 nM | GI50 (MDA-MB-435 [22]): 36 nM | inhibition of growth at 10 µM [23]: 45% | inhibition of growth at 10 µM [24]: 76% | GI50 [25]: 323 nM | inhibition of growth at 10 µM [26]: 85% | inhibition of growth at 10 µM (HT-29 [27]): 100% | inhibition of growth at 10 µM [28]: 100% | GI50 [29]: 725 nM | GI50 (A549): 344 nM | inhibition of growth at 10 µM [30]: 89% | GI50 [31]: 336 nM | GI50 (HT-29 [32]): 283 nM | GI50 [33]: 470 nM | inhibition of growth at 10 µM [34]: 70% | GI50 [35]: 128 nM | inhibition of growth at 10 µM (SK-MEL-2): 100% | GI50 [36]: 287 nM
